Laboratory results reported in US8658564B2, “Fungicide active ingredient combinations” (Bayer Cropscience AG, priority 2007, dated 2014).

Tests used:
Pyrenophora teres = Pyrenophora teres test (barley)/protective; assay type: in vivo, Pyrenophora teres on barley; settings: 62.5 g/ha; evaluation 10 days after inoculation
Experimental: Pyrenophora teres Test (Barley)/Protective • Solvent: 50 parts by weight of N,N-dimethylacetamide • Emulsifier: 1 part by weight of alkylaryl polyglycol ether To produce a suitable preparation of active compound, 1 part by weight of active compound or active compound combination is mixed with the stated amounts of solvent and emulsifier, and the concentrate is diluted with water to the desired concentration, or a commercial formulation of active compound or active compound combination is diluted with water to the desired concentration. To test for protective activity, young plants are sprayed with the active compound preparation at the stated application rate. After the spray coating has dried on, the plants are sprayed with a conidia suspension of Pyrenophora teres. The plants remain in an incubation cabin at 20° C. and 100% relative atmospheric humidity for 48 hours. The plants are then placed in a greenhouse at a temperature of about 20° C. and a relative atmospheric humidity of about 80%. Evaluation is carried out 10 days after the inoculation. Here, 0% means an efficacy which corresponds to that of the control, whereas an efficacy of 100% means that no infection is observed.

Leptosphaeria nodorum = Leptosphaeria nodorum test (wheat)/protective; assay type: in vivo, Leptosphaeria nodorum on wheat; settings: evaluation 10 days after inoculation
Experimental: Leptosphaeria nodorum Test (Wheat)/Protective • Solvent: 50 parts by weight of N,N-dimethylacetamide • Emulsifier: 1 part by weight of alkylaryl polyglycol ether To produce a suitable preparation of active compound, 1 part by weight of active compound is mixed with the stated amounts of solvent and emulsifier, and the concentrate is diluted with water to the desired concentration. To test for protective activity, young plants are sprayed with the active compound preparation at the stated application rate. After the spray coating has dried on, the plants are sprayed with a spore suspension of Leptosphaeria nodorum. The plants remain in an incubation cabin at 20° C. and 100% relative atmospheric humidity for 48 hours. The plants are placed in a greenhouse at a temperature of about 20° C. and a relative atmospheric humidity of 80%. Evaluation is carried out 10 days after the inoculation. Here, 0% means an efficacy which corresponds to that of the control, whereas an efficacy of 100% means that no infection is observed.

Rhizoctonia solani = Rhizoctonia solani test (in vitro)/microtitre plates; assay type: cell-based; settings: 120 h, application rate 0.1 ppm, 5 days incubation, PDB medium, read-out: % efficacy
Experimental: Rhizoctonia solani Test (In Vitro)/Microtitre Plates The microtest is carried out in microtitre plates using Potato Dextrose Broth (PDB) as liquid test medium. The active compounds are used as technical-grade a.i., dissolved in methanol. For inoculation, a mycelium suspension of Rhizoctonia solani is used. After 5 days of incubation in the dark and with shaking (10 Hz), the transparency of each filled cavity of the microtitre plates is determined with the aid of a spectrophotometer. Here, 0% means an efficacy which corresponds to the growth in the controls, whereas an efficacy of 100% means that no fungal growth is observed.

Structure (SMILES) | Efficacy in % found (Pyrenophora teres) [%] | Efficacy in % found (Leptosphaeria nodorum; 62.5 g/ha) [%] | Emax at 0.1 ppm (Rhizoctonia solani) [%] | Efficacy in % found (Leptosphaeria nodorum; 125 g/ha) [%]
OC(Cc1ccccc1Cl)(Cn1nc[nH]c1=S)C1(Cl)CC1 (stereo not shown) [(II) Prothioconazole, prothioconazole] | 44 | – | – | –
Cc1nn(C)c(F)c1C(=O)Nc1ccccc1C(C)CC(C)C (stereo not shown) [(I), N-[2-(1,3-Dimethylbutyl)phenyl]-5-fluoro-1,3-dimethyl-1H-pyrazole-4-carboxamide] | 67 | 0 | – | –
CC(C)(C)C(O)(CCc1ccc(Cl)cc1)Cn1cncn1 (racemic) [Tebuconazole, (RS)-1-p-chlorophenyl-4,4-dimethyl-3-(1H-1,2,4-triazol-1-ylmethyl)-pentan-3-ol] | – | 56 | 13 | –
COCC(=O)N(c1c(C)cccc1C)C(C)C(=O)OC (stereo not shown) [(III) Metalaxyl, metalaxyl] | 0 | – | – | 11
